Measured values published in patent publication US5744462A, “Steroids useful as anti-cancer and anti-obesity agents” (Research Corporation Technologies, Inc., priority 1995, dated 1998).
“Also recorded” adds a separate entry of the source.

Tests used:
mouse skin DNA = test: (3H) DMBA binding to skin DNA; format: in vivo, mouse (A/J); conditions: for effect on 3H-DMBA binding to skin DNA: mice
[1] = test system: many different cell lines; conditions: 10^-5 M to 10^-4 M; cited from earlier work
[2] = DMBA-initiated and TPA-promoted; cited from earlier work
[3] = Anti-obesity action, body weight, female Balb/c mice; format: in vivo, mouse (female Balb/c); conditions: 0.25% in diet
Description: Female Balb/c (8 weeks old) mice were obtained from
the Jackson Laboratory and were housed in polycarbonate cages
(6 mice/cage) in animal quarters maintained at 24 ± 1° C. with
12 hours of light and 12 hours of darkness each day. One
week after arrival, the mice were placed on a diet containing
either DHEA, 8354, or without steroid. Animals were weighed

HeLa cell strain, TCRC-2 = conditions: cited from earlier work
mouse epidermis = conditions: cited from earlier work
[4] = C3H mice, cited from earlier work
[5] = in vivo; cited from earlier work
[6] = Estrogenic and anti-estrogenic activity, uterine weight; format: in vivo, rat (female CD); conditions: 60 mg/kg s.c. for 3 days, DHEA significantly greater than control
Description: Estrogenic and Anti-Estrogenic Activity
Female CD rats, 26-27 days old, were injected subcutaneously for 3 days with one of the compounds of the present invention at 60 mg/kg in propylene glycol. Controls received propylene glycol alone. On the 4th day, the rats were killed and the uteri were dissected out and weighed.

[7] = Liver weight after three weeks of diet treatment; format: in vivo, mouse (female Balb/c); conditions: 0.25% of diet
Description: Female Balb/c mice were housed in polycarbonate cages (6/mice/cage) in animal quarters maintained at 24°±1° C. with 12 hours of light and 12 hours of dark each day. The mice were placed on a diet containing either DHEA, 8354, A, B clofibrate or with no addition. Three weeks later the mice were killed, the livers were perfused with cold saline, weighed, and 5% liver homogenates were prepared for the determination of catalase activity by the spectrophotometric method of Luck (H. Luck, in Method in Enzyme Analysis, H. U. Bergmeyer, Ed. (Verlag Chemie, Weinheim/Bergstrasse, Germany, 1965)). Total protein was measured by the method of Lowry, et al. (O. H. Lowry, N. J. Rosebrough, A. L. Farr, R. J. Randall, J. Biol. Chem., 193, 265 (1951)).

[8] = without suppressing appetite; cited from earlier work
[9] = oral; cited from earlier work

## C[C@]12CC[C@H](O)CC1=CC[C@@H]1[C@@H]2CC[C@]2(C)C(=O)CC[C@@H]12 [DHEA, Dehydroepiandrosterone]
Mouse skin DNA; 400 ug topical one hour before DMBA, ad libitum fed 116 ± 5.2
  SPECIFIC ACTIVITY, (3H) DMBA binding to skin DNA: 66 ± 13 cpm/ug DNA
Mouse skin DNA; four weeks, 400 mg/kg
  effect on 3H-DMBA binding to skin DNA: does inhibit ^3 H-DMBA binding to skin DNA
Mouse skin DNA; oral, doses well below 400 mg/kg
  effect on 3H-DMBA binding to skin DNA: inactive
Mouse skin DNA; single administration, 400 mg/kg
  effect on 3H-DMBA binding to skin DNA: does not inhibit ^3 H-DMBA binding to skin DNA
Mouse skin DNA; topical, in words (Table 4)
  effect on rate of binding of 3H-DMBA to skin DNA: inhibits the rate of binding
[1]
  growth of cell lines in culture: slows the growth of many different cell lines in culture
[2]
  skin papilloma formation: inhibit
[3]; week 0, control 17.5 ± 1.4
  mean weekly weight ± S.D.: 17.5 ± 1.5 grams
[3]; week 1, control 19.9 ± 1.2
  mean weekly weight ± S.D.: 20.0 ± 0.9 grams
[3]; week 2, control 20.6 ± 1.0
  mean weekly weight ± S.D.: 20.6 ± 0.9 grams
[3]; week 3, control 21.8 ± 0.8
  mean weekly weight ± S.D.: 21.3 ± 1.3 grams
HeLa cell strain, TCRC-2
  growth inhibition of HeLa TCRC-2: particularly sensitive to DHEA-induced growth inhibition
HeLa cell strain, TCRC-2; mixture of deoxynucleosides of adenine, guanine, cytosine, thymine in medium
  reversal of growth inhibition by deoxynucleosides: can be almost completely overcome
Mouse epidermis
  capacity of TPA to stimulate 3H-thymidine incorporation: antagonizes
[4]
  weight gain on long-term treatment: reducing weight gain without suppressing appetite
[4]; long-term treatment
  spontaneous breast cancer development: markedly inhibits spontaneous breast cancer development
[5]
  estrogenic effect after prolonged administration: evidence of an estrogenic effect after prolonged administration
[6]; control 2.02 ± 0.28, p < .001
  Mean Uterine Weight ± S.D.: 4.17 ± 0.48 mg/100 gm body weight
[6]; Table 2a, control 1.95 ± 0.22, p < 0.001
  Mean Uterine Weigh ± S.D.: 3.93 ± 0.71
[7]; control 0.057 ± 0.006, DHEA p < 0.05, clofibrate p < 0.002 vs control
  LIVER WEIGHT: 0.074 ± 0.005 gm/gm body weight
[7]; mice
  liver weight, in words: increased liver weight; also recorded: hepatomegaly
[8]
  effect on obesity on long-term administration: prevented the development of obesity without suppressing appetite
[9]
  survival: prolonged the survival
